{"source": "patent US20090054394A1", "about": "“POLYMORPHISMS IN MGST3 ARE ASSOCIATED WITH ELEVATED ALAT LEVELS AFTER XIMELAGATRAN TREATMENT” (priority 2005, published 2009)", "test_system": "alanine aminotransferase (ALAT) levels", "test": "Clinical trials, longer-term ximelagatran treatment: alanine aminotransferase (ALAT) elevation", "format": "in vivo, human", "text": "Phase III clinical trials have been performed using fixed doses of melagatran and ximelagatran for the prevention of VTE in hip or knee replacement surgery. In addition, clinical trials have been performed using ximelagatran for the treatment and long-term secondary prevention of VTE, and for the prevention of stroke in patients with non-valvular atrial fibrillation. Ximelagatran has also been tested for secondary thrombosis prophylaxis post-myocardial infarction/acute coronary syndrome (ACS).\nAlanine aminotransferrase (ALAT) is an enzyme mostly expressed in the liver (EC 2.6.1.2). It is also called serum glutamate pyruvate transaminase (SGPT) or alanine transaminase (ALT). This enzyme is release into the plasma by liver cell death, which is a normal event. However, when liver cell death increases, ALAT levels rise above the normal range. The spill-over of this enzyme into blood is routinely measured as a marker of abnormal liver-cell damage. For example, alcoholic or viral hepatitis will increase ALAT levels, as will severe congestive heart failure. ALAT is also markedly raised in hepatitis and other acute liver damage. An elevated ALAT in the presence of normal levels of plasma alkaline phosphatase helps distinguish liver disease caused by liver-cell damage from diseases caused by problems in biliary ducts. Elevations of ALAT are normally measured in multiples of the upper limit of normal (ULN), with a reference range of 15-45 U/L in most laboratories. In 1987, in a study of 19,877 healthy Air Force recruits, only 99 (0.5%) had confirmed ALAT elevations (as reviewed in Green & Flamm (2002) Gastroenterology 123:1367-1384).\nThe increase in ALAT values with ximelagatran, usually occurred within the first 6 months of treatment and were mainly asymptomatic. […] Subject to the future regulatory approval of ximelagatran, regular liver function testing (LFT) using an appropriate algorithm may be required if ximelagatran is used for treatment periods exceeding a month. […]", "data": [{"smiles": "CCOC(=O)CN[C@@H](C(=O)N1CC[C@H]1C(=O)NCc1ccc(/C(N)=N\\O)cc1)C1CCCCC1", "note": "[ximelagatran, EtOOC—CH2—(R)Cgl-Aze-Pab-OH]", "values": [{"measurement": "patients exhibiting ALAT 3-fold or more above the upper limit of normal (≧3×ULN)", "setting": "longer-term treatment (>35 days), 1.2% in the comparator groups", "value": 7.9, "unit": "%"}, {"measurement": "reversibility of the increases in ALAT", "setting": "regardless of whether treatment was continued or discontinued", "value": "reversible in most patients"}, {"measurement": "time of occurrence of the increase in ALAT values", "setting": "usually, time from start of treatment", "value": "≤ 6", "unit": "months"}]}]}
